Laboratory results as given in patent US20110003013A1, “METHOD OF INCREASING METABOLISM” (GARVAN INSTITUTE OF MEDICAL RESEARCH, priority 2008, published 2011).
“Also recorded” adds a separate entry of the source.

How the values were obtained:
[1] = Indirect calorimetry (Oxymax): VO2, VCO2, RER, heat, activity; type: in vivo, C57Bl/6 mice
Protocol: (§1) Each mouse was weighed weekly and the blood glucose levels assessed at random times every second week alternating with rectal temperatures. Intraperitoneal Glucose Tolerance Testing (IPGTT) was carried out at week 5 and 21 using 2g glucose/kg dose. Insulin Tolerance Testing (ITT) was carried at week 2 (0.33 U/kg) and week 6 (0.50 U/kg). Glucose Stimulated Insulin Secretion (GSIS)(3g glucose/kg) was studied out at week 7. Food intake studies were carried out at weeks 0, 4, 8 and 25. Indirect calorimetry was performed using the Oxymax System (Columbus Instruments, Columbus, Ohio) at weeks 0, 4, 8 and 25. Measurements were taken over a 12-hour light cycle and a 12-hour dark cycle.
Mice were placed with ad libitum food and water in separate chambers in an 8 chamber, indirect open circuit calorimeter (Columbus Oxymax Respirometer 0246-002M, Columbus Instruments Ohio USA) for 36-48 hours. This machine obtains periodic measurements of the percentage of oxygen and carbon dioxide in the test chamber. Changes in gas concentrations are used to calculate the rate of oxygen consumption (VO2) and carbon dioxide production (VCO2) per mouse, with a readout every 27 minutes (Oxymax Software 0246-102M). The software calculates heat production per mouse and the respiratory exchange ratio (RER) (VCO2/VO2) using VO2 and VCO2. Activity levels were simultaneously measured in 2 dimensions (Opto-M3 activity meter) using […] wavelength light beams. Ambulatory movements were registered when more than one light beams in the same axis were crossed by an animal in a given period of time. The last 24 hours of data were analysed to allow for an acclimatisation period.
The hourly mean VO2 and VCO2 (mL/hr/kg total body weight) were calculated by averaging the VO2 and VCO2 readings produced by the Oxymax software for each hour. VO2 and VCO2 per unit of lean body mass (VXX2LM) was calculated from the Oxymax results (VXX2) using the following equation: […]
The hourly mean RER and the total, light and dark RER were calculated in a similar manner to VO2 and VCO2. No adjustment for body weight was required.
Heat (total energy expenditure, kcal/hr/mouse) was calculated by the Oxymax software using the formula:
Heat=CV (calorific value)*VO2 where CV=3.815+(1.232*RER)
The hourly mean heat production and the total, light and dark heat production were calculated in a similar manner to VO2 and VCO2. Heat production per unit of lean body mass was calculated by dividing the Oxymax reading by unit of lean body mass.
To quantify activity levels, the total number of ambulatory movements in the x axis and the y axis was calculated per unit time for each mouse.
Oxymax data were analysed using t-tests.

[2] = HFD-induced hepatic lipid accumulation (steatosis); type: in vivo, C57Bl/6 mice; conditions: 10 weeks on HFD, vs CON mice, data not shown
Protocol: (§2) Mice livers were fixed in 10% buffered formaldehyde, embedded in paraffin and slides were prepared using standard haematoxylin and eosin as well as Perl staining to visualize hepatic iron.
(§3) Plasma insulin was measured with ELISA kits. Liver transaminases and plasma lipids were performed by Sydpath Pathology, St Vincent's Hospital. Liver triglycerides were extracted using methanol/chloroform 2:1 and detected using colorimetric assay.

[3] = Body weight of ob/ob mice on chow diet with DFS; type: in vivo; conditions: vs control ob/ob mice
Protocol: Studies were also performed using ob/ob mice, in particular, 5 ob/ob controls and 5ob/ob mice administered DFS. Wild type C57bl/6 mice were also used as controls, 4 untreated and 4 administered DFS.

[4] = Blood glucose levels assessed at random times; type: in vivo, C57Bl/6 mice; conditions: over 9 weeks of high fat diet, vs CON mice
Protocol: as §1

[5] = Weight of visceral, white and brown adipose tissue; type: in vivo, C57Bl/6 mice; conditions: high fat diet, vs control mice
[6] = tested on: AKT2, IRS1, IRS2, PFK, GLUT2, HSL, LPL; experiment: Liver gene expression by quantitative real-time PCR; type: in vivo, C57Bl/6 mice; conditions: vs control
Source text: Tissues were homogenized in extraction buffer and RNA was isolated according to the RNeasy Kit protocol. […] The level of mRNA for each gene was normalized to the level of TATA box binding-protein (TBP) mRNA in each sample.

[7] = Fasting plasma insulin and glucose stimulated insulin secretion (GSIS); type: in vivo, C57Bl/6 mice
Protocol: as §1, §3

Insulin tolerance test = type: in vivo, C57Bl/6 mice
Protocol: as §1
Mice were fasted overnight for 16 hours. Insulin was injected at 0.5 units per kg (diluted in 1× PBS with 1% bovine serum albumin) by intraperitoneal injection. Blood glucose was measured via glucometer prior to, and at 10, 20, 30, 45 and 60 minutes after the insulin injection.

Food intake studies = type: in vivo, C57Bl/6 mice
Protocol: as §1

HIF-1α = experiment: Western blot of liver lysates for HIF-1α; type: in vivo, C57Bl/6 mice; conditions: vs control
Protocol: Fresh tissues were removed rapidly from culled animals and kept frozen in the −80° C. freezer. They were then homogenized in lysis buffer and sonicated in cold RIPA buffer ([…] pH 7.4, 1% NP40, 0.25% sodium deoxycholate, […], 1 mM EDTA, 1 mM PMSF and protease inhibitor cocktail). 121 μg of protein sample was resolved on an 8% SDS PAGE gel. Proteins were transferred onto nitrocellulose membrane. Primary antibodies (HIF-1α, and (β-tubulin) were prepared in milk buffers at concentrations of 1:500 and 1:2000 respectively and the membrane was incubated overnight at 4° C. Membranes were then rinsed with Phosphate Buffered Solution containing Tween and HRP-conjugated secondary antibodies (at 1:1000 dilution). Proteins were visualised using enhanced chemiluminescence.

[8] = Intraperitoneal glucose tolerance test; type: in vivo, C57Bl/6 mice; conditions: 2 g glucose/kg i.p., vs CON mice
Protocol: as §1
Mice were fasted overnight for 16 hours. Glucose was administered at a dose of 2g/kg by intraperitoneal injection in the form of a 20% dextrose solution. Blood glucose was measured via glucometer (Accucheck Advantage II, Roche, Australia) prior to, and at 15, 30, 60, 90 and 120 minutes after the dextrose injection.
Mice were fasted for 6 hours before intraperitoneal administration of glucose (2 g/kg dose) in sterile water. Blood glucose was measured by glucometer at the times indicated.

Iron levels in the liver = type: in vivo, C57Bl/6 mice; conditions: vs CON mice, data not shown
Protocol: as §2

[9] = Blood and liver safety parameters (haemoglobin, white blood counts, transaminases, serum iron); type: in vivo, C57Bl/6 mice; conditions: vs control mice
Protocol: as §3

[10] = Body weight of mice on high fat diet with DFS; type: in vivo, C57Bl/6 mice; conditions: Studies 1-4, vs control mice, from about 3 to about 10 weeks after commencement
Protocol: Four studies were performed using C57Bl/6 mice. Study 1 included 30 control mice and 30 mice administered DFS. Study 2 included 30 control mice and 30 mice administered DFS. Study 3 included 8 control mice and 8 mice administered DFS. Study 4 included 18 control mice and 18 mice administered DFS. Mice in Study 3 differed to those in studies 1 and 2 in so far as they were sourced from different colonies.
Mice were randomly separated equally into a treatment group receiving Deferasirox (DFS) or a control group (CON). DFS was powdered using a mortar and pestle and mixed in thoroughly with the dry mineral mix prior to the addition of melted lard and then left to harden overnight in the refrigerator to form high-fat diet (HFD). From 6 weeks of age for up to 25 weeks, the mice were then fed ad libitum this HFD, from which 45% of their calories were derived from animal lard.
as §1, with “Indirect calorimetry was performed using the Oxymax System (Columbus Instruments, Columbus, Ohio) at weeks 0, 4, 8 and 25. Measurements were taken over a 12-hour light cycle and a 12-hour dark cycle.” left out

CC(=O)N(O)CCCCCNC(=O)CCC(=O)N(O)CCCCCNC(=O)CCC(=O)N(O)CCCCCN [DFO]
metabolism in a subject ([1]; summary statement of the inventors' work): capable of increasing metabolism

O=C(O)c1ccc(-n2nc(-c3ccccc3O)nc2-c2ccccc2O)cc1 [DFS, 4-[3,5-Bis (2-hydroxyphenyl)-1H-1,2,4-triazol-1-yl]-benzoic acid]
macroscopic hepatic steatosis [2]: relatively protected | weight gained over an eight week period ([3]; ob/ob mice on chow diet, p<0.0005): significantly lower; also recorded: gained significantly less weight | body weight ([3]; ob/ob mice on normal chow diet): reduced body weight (or reduced body weight increase) | blood glucose levels at random times [4]: generally had lower blood glucose levels; also recorded: significantly lower blood glucose levels | weight of brown adipose tissue (BAT) [5]: unchanged | weight of visceral adipose tissue (VAT) [5]: reduced; also recorded: significantly lighter | weight of white adipose tissue (WAT) [5]: reduced; also recorded: significantly lighter | AKT2 gene expression ([6]; normalized to TBP mRNA): significantly increased | IRS1 gene expression ([6]; normalized to TBP mRNA): significantly increased; also recorded: increased expression | IRS2 gene expression ([6]; normalized to TBP mRNA): significantly increased | PFK gene expression ([6]; normalized to TBP mRNA): significantly increased | GLUT2 expression [6]: trend for improved | hormone sensitive lipase (HSL) gene expression [6]: significantly increased; also recorded: increased expression | lipoprotein lipase (LPL) gene expression [6]: significantly increased; also recorded: increased expression | mean fasting insulin levels vs control ([7]; high fat diet, p<0.005): significantly lower | fasting insulin levels ([7]; high fat diet, mean + SEM, p=0.005 vs control): 2837+874 pmol/L | glucose stimulated insulin secretion (GSIS) profile ([7]; week 7, 3 g glucose/kg, vs control): better preservation | insulin tolerance (ITT) (Insulin tolerance test; following five weeks of high fat diet, vs CON mice): performed significantly better; also recorded: significantly improved insulin tolerance | proportion of animals with glucoses <2 mmol/L (Insulin tolerance test; vs 38% of controls, p<0.001, indicating improved insulin sensitivity, data not shown): About 80% | food consumed adjusted per body weight (Food intake studies; by 25 weeks, HFD, vs CON mice): eaten more HFD adjusted per body weight; also recorded: consumed significantly more food per gram of body weight | feed intake (Food intake studies; week 0, vs CON animals): did not differ | level of HIF-1α relative to β-tubulin (HIF-1α): increased HIF-1α; also recorded: higher levels of HIF-1α | glucose tolerance ([8]; 21 weeks of high fat diet): continued beyond at least week 21; also recorded: significantly improved insulin tolerance | glucose tolerance ([8]; five weeks of high fat diet): significantly better glucose tolerance; also recorded: significantly improved glucose tolerance | oxygen consumption (VO2) ([1]; after 8 weeks of high fat diet and DFS, vs control mice): significantly increased; also recorded: consume significantly more oxygen than control mice | oxygen consumption (VO2) ([1]; after 25 weeks of high fat diet and DFS, vs control mice): significantly increased; also recorded: consume significantly more oxygen than control mice | metabolic rate ([1]; high fat diet, vs control mice): significantly higher metabolic rate | respiratory exchange ratio (RER) (VCO2/VO2) ([1]; high fat diet, vs control mice): significantly reduced | energy expenditure (EE) or heat production ([1]; over a day, high fat diet, vs control mice): significantly higher energy expenditure | oxygen consumption (VO2) / baseline metabolic rate ([1]; week 0 (initial week of high fat diet and DFS), vs control mice): similar; also recorded: no significant difference | CO2 production ([1]; week 8 of continuous DFS treatment, vs control mice): significantly increased | CO2 production ([1]; week 25 of continuous DFS treatment, vs control mice): significantly increased | liver iron levels (Iron levels in the liver): lower iron levels | haemoglobin levels / anaemia [9]: does not result in anaemia; also recorded: No significant difference | serum alanine transaminase levels [9]: No significant difference | serum aspartate aminotransferase levels [9]: No significant difference | serum iron levels [9]: No significant difference | significantly reduced liver function [9]: does not result in | white blood counts [9]: No significant difference | body weight / weight gain [10]: significantly reduced body weights; also recorded: decreases weight gain
